Data set [1] relates to blood vessel (rat aorta) with intact endothelium. The experiment in a line: β-amyloid induced contraction (vasoactivity) of blood vessel rings in tissue bath. The class given is cell-based. Here is the method:
(§1) Freshly excised rat and porcine blood vessels were placed in Kreb's bicarbonate buffer equilibrated with 5% CO2 in O2. The buffer composition consisted of 118.2 mM NaCl, 4.7 mM KCl, 1.2 mM MgSO4, 2.5 mM CaCl2, 1.2 mM NaH2 PO4, 23 mM NaHCO3 and 11.2 mM glucose. After cleaning the vessels free of fat and other adhering tissues, the vessels were cut into ring segments of approximately 3mm in length. Care was taken not to damage the intimal surface.
The endothelium was removed from some preparations by rubbing the inside of the lumen with a metal spatula for six to ten seconds and subsequent rinsing with buffer. The removal of endothelium was confirmed by testing for relaxation to acetylcholine [Furchgott and Zawadzki, 1980].
(§2) The blood vessel preparations were mounted on stainless steel hooks attached to a force-displacement transducer and equilibrated under the optimum tension of 1.3 g for a period of sixty minutes in a tissue bath (10 ml) containing oxygenated (5% CO2 in O2) Kreb's buffer at 37° C. The buffer was changed every fifteen minutes. After equilibration for sixty minutes the viability of the blood vessel with intact endothelium was established by constricting the blood vessel using phenylephrine ([…]). This dose of phenylephrine elicited 80% of the maximum response. […] The vessel preparations were washed for fifteen minutes before various manipulations as described below.
Referring to FIG. 10, the arrow indicates the addition of 10^-6 M β-amyloid. The control tissue received no β-amyloid. SOD (150 units/ml) was added thirty seconds prior to the addition of β-amyloid. The maximum contraction induced by β-amyloid was 1.14±0.13 (g) and in presence of SOD the contraction was reduced to 0.04±0.02 (g). Values represent the mean ±SEM of five separate experiments.

A further data set deals with blood vessel (rat aorta). Put plainly: Acetylcholine induced relaxation of phenylephrine-preconstricted aorta after β-amyloid pretreatment. The format is cell-based. The procedure:
as §1, §2
As shown in FIG. 11a the aorta was preconstricted with 10^-7 M PE and relaxed with increasing doses of acetylcholine as shown by the arrows. (1=10^-9 M, 2=10^-8 M, 3=5×10^-8 M, 4=10^-7 M, 5=5×10^-7 M, 6=10^-6 M, 7=10^-5 M, 8=5×10^-5 M, the curve denoted by (C) is the control curve and +Aβ indicates the curve for β-amyloid treated aorta.)
FIG. 11b illustrates the relaxation by acetylcholine under control conditions and following fifteen minute incubation with 10^-6 M β-amyloid protein. The acetylcholine relaxation curve is shifted to the right but maintains its sigmoidal form indicating attenuation of acetylcholine induced relaxation. Values represent the mean ±SEM of 5 or more experiments. […] At higher doses of acetylcholine greater percentage changes in relaxation occur preserving the sigmoidal response.

For another data set, the system named is aortic rings. The experiment in a line: β-amyloid augmentation of phenylephrine (PE) induced contraction of aortic rings. The format is cell-based, rat. Particulars: for PE induced contraction, +β-Amyloid P1 (±SEM), percent of control value: 10^-6 M β-amyloid fifteen minutes, control maximum = 100%; for PE induced contraction, +β-Amyloid P2 (±SEM), percent of control value: repeated after rinsing, no further β-amyloid. Here is the method: as §1, §2
The procedure was then repeated following incubation of the tissue with 10^-6 M β-amyloid for fifteen minutes (P1). The tissue was then rinsed and contractions repeated twice following fifteen minute incubation (P2 & P3) without further addition of β-amyloid. Arrows are shown for points of addition for P3.
Following a fifteen minute incubation, the preparations were contracted with 10^-7 M phenylephrine (PE) as described earlier. Control contractions with PE alone were carried out in presence of the various test compounds. Values represent the mean ±SEM of four or more experiments. The heat-inactivated SOD was prepared by placing it in boiling water for thirty minutes followed by cooling prior to use. The hydrogen peroxide-inactivated SOD was prepared by exposing SOD to 10 mM H2 O2 for thirty minutes at pH 8.5 and subsequent separation using Microcon filtration system. The amyloid induced PE contraction was blocked by active SOD. Neither albumin or inactivated SOD had any effect on the amyloid activity.
The effect of preincubation of blood vessel with 10^-6 M β-amyloidon contraction induced by phenylephrine (2,4,8, & 16×10^-8 M is shown in Table 1). The maximum contraction in the absence of β-amyloid is taken as 100% and the values obtained following exposure to β-amyloid are expressed as percent of control value. After washing out phenylephrine and acetylcholine of the control contraction, β-amyloid augmented the phenylephrine induced contractions (P1). This effect was blocked by SOD. Washing out the phenylephrine and acetylcholine of the post peptide contraction and repeating the contractions caused further enhancement (P2). Values represent the mean ±SEM of nine or more experiments.
The tissue was then incubated for fifteen minutes with β-amyloid (5×10^-7 M) with or without the drug, followed by contractions with PE. The concentrations compounds used were: L-NMMA, an inhibitor of NO synthase (10^-4 M); indomethacin, an inhibitor of the cyclooxygenase pathway (10^-5 M); SQ 29548, a thromboxane A2 receptor antagonist (10^-5 M); and catalase (1000 units/ml). Values are represented as percentage of the maximal contraction obtained with β-amyloid and PE alone and standardized to remove the intrinsic effects (if any) of each drug on PE contraction alone. The results represent the mean ±SEM of five or more experiments.

Data set [2] has as its system endothelial cells in aortic rings. The experiment in a line: Electron microscopy of the endothelial cell layer in aortic rings. The class given is cell-based, rat. Here is the method: As shown in FIGS. 14A-F, […], or in presence of β-amyloid (10^-6 M), or SOD (150 units/ml) and β-amyloid.The tissue samples were kept in glutaraldehyde solution at 4° C. until processed and then rinsed with cacodylate buffer. The tissues were postfixed with 1% buffered osmium tetroxide, dehydrated with graded ethanol solutions, and embedded in a mixture of eponaraldite. Ultrathin sections were stained with uranyl acetate and lead citrate and viewed on model 7000 Hitachi transmission electron microscope. The inset bar indicates one micron. The experiment was repeated three or more times with blood vessels from different animals.

Data set [3] concerns endothelial cell layer in rat coronary artery. The experiment in a line: Electron microscopy of the endothelial cell layer in rat coronary artery. The class given is cell-based. The note with it: β-amyloid thirty minutes at 10^-6 M. The procedure:
The physiological effects of β-amyloid treatment on the coronary artery with and without pretreatment with SOD is shown in FIGS. 7A-C. FIGS. 7A-C are electron micrographs showing the endothelial cell layer in rat coronary artery. […] The tissue samples were kept in glutaraldehyde solution at 4° C. until processed and then rinsed with cacodylate buffer. The tissues were post-fixed with 1% buffered osmium tetroxide, dehydrated with grated ethanol solutions, and embedded in a mixture of eponaraldite. Ultra thin sections were stained with uranyl acetate and lead citrate and viewed on a model 7,000 Hitachi transmission electron microscope. The inset bar indicates two microns. The experiment was repeated three or more times with blood vessels from different animals. FIG. 7A is a control coronary artery and depicts normal endothelial cells closely adhering to the intimal elastic lamina lining of the lumen. […] FIG. 7C depicts a rat coronary artery pretreated with SOD (150 units/ml, for thirty seconds prior to the addition of β-amyloid).

The subject of data set [4] is porcine coronary arteries. Put plainly: Amyloid peptide induced contraction of porcine coronary arteries. The format is cell-based. Particulars: increasing concentrations of amyloid peptide. An excerpt: Freshly isolated porcine coronary arteries were studied by the methods described above for rat aorta.
The next data set concerns Porcine aorta. Put plainly: U46619 constriction and bradykinin relaxation of porcine vessel after amyloid peptide. The class given is cell-based. The note with it: single dose of amyloid. The source says:
The effect of pre-treatment with a single dose of amyloid protein on relaxation induced by increasing concentrations of the vasodilator bradykinin is shown in FIG. 23. […] was preconstricted with a single dose of the vasoconstrictor U46619.

For data set [5], the system named is bovine mid cerebral arteries. The experiment in a line: Effect of β-amyloid on bovine cerebral artery (U46619 contraction, bradykinin vasodilation). The class given is cell-based. Particulars: 1 μM β-amyloid for 15 minutes. Here is the method: Freshly dissected bovine mid cerebral arteries were cut into 3 mm rings and studied in tissue chamber as described earlier. Contraction of the blood vessel to the vasoconstrictor U46619 was studied before and after treatment with 1 μM β-amyloid for 15 minutes. […] (See FIG. 24).

“Also recorded” adds a separate entry of the source.

For β-amyloid, in data set [1], the “duration of the vasoactivity (contractions and relaxations)” value is “fifteen to twenty minutes”. In data set [1], the “time until vasoactive effect is evident” value was “within thirty seconds; also recorded: less than one minute; also recorded: less than five minutes”. Further, the “initial detectable change: minor relaxation” value in data set [1] (after addition of β-amyloid) is less than 0.1 g. Also, the “effect of β-amyloid on basal tension” value in data set [1] (increasing concentrations of β-amyloid) is on record as “constricted the blood vessel in a concentration-dependent manner”. In data set [1] (vessel with vs without endothelium), the “dependence of the constricting effect on endothelium” value is “only occurred in the presence of endothelium”. Besides, the “cumulative percentage relaxation by acetylcholine after β-amyloid” value with blood vessel (rat aorta) (10^-6 M β-amyloid, fifteen minute incubation, 10^-7 M phenylephrine, all points past 10^-8 M acetylcholine) is given as “significantly lowered”. Further, in the data set on blood vessel (rat aorta) (cumulative small doses of acetylcholine (FIG. 4)), the “effect of β-amyloid pretreatment on acetylcholine induced relaxation” value is “significantly reduced relaxation induced by the same doses of acetylcholine”. Further, in the data set with blood vessel (rat aorta) (washout after β-amyloid exposure), the “effect of washing the tissue after β-amyloid on acetylcholine induced relaxation” value was “did not restore the acetylcholine-induced relaxation to control levels”. For the same substance, the “effect of β-amyloid pretreatment on phenylephrine constriction” value in the data set with aortic rings (FIG. 4) is recorded as “enhanced constriction”. The “PE induced contraction, +β-Amyloid P1 (±SEM), percent of control value” is 13.3 (5.9) % with aortic rings (PE 2×10^-8 M), 75 (6.0) % in the data set on aortic rings (PE 4×10^-8 M), 105 (15.0) % with aortic rings (PE 8×10^-8 M) and 128 (11.7) % in the data set with aortic rings (PE 16×10^-8 M). For the same substance, the “PE induced contraction, +β-Amyloid P2 (±SEM), percent of control value” in the data set with aortic rings (PE 2×10^-8 M) is recorded as 20 (5.0) %; in the data set on aortic rings (PE 4×10^-8 M), 99 (15.0) %; with aortic rings (PE 8×10^-8 M), 133 (20.0) %; in the data set on aortic rings (PE 16×10^-8 M), 141 (17.6) %. For the same substance, the “β-amyloid concentration required to induce the morphological changes” value in data set [2] (incubation periods of fifteen minutes) is on record as ≥ 5×10^-7 M. Besides, the “morphological effect on endothelial cells” value in data set [2] (β-amyloid 10^-6 M, 37° C., thirty minutes) is “induced significant damage to the endothelial cells”. Besides, the “morphology of endothelial layer after β-amyloid” value in data set [3] is “Derangement of the endothelial layer, condensed nucleus, separation from the intimal elastic lamina, and areas of denuded internal elastic lamina”. Also, the “contraction of porcine coronary artery samples” value in data set [4] is “dose dependent contraction”. The “effect on vasodilation by bradykinin” value in the data set with Porcine aorta (increasing concentrations of bradykinin) is “reduced the vasodilation caused by the bradykinin”. The effect on vasoconstriction result in the data set on Porcine aorta (preconstricted with U46619) is given as “significant increase in vasoconstriction”. Besides, in data set [5], the “contraction induced by the vasoconstrictor U46619 after β-amyloid” value is “significantly increased”.

The record behind these values is patent US6140309A, “Vasoactive effects and free radical generation by β-amyloid peptides” (University of South Florida, priority 1996, dated 2000).
